Measured values: ChEMBL document CHEMBL3792365, “Dioxol and dihydrodioxin analogs of 2- and 3-phenylacetonitriles as potent anti-cancer agents with nanomolar activity against a variety of human cancer cells” (2016)

Assays:
Format in all cases: functional
[1] = Growth inhibition of human SNB75 cells at 10 uM after 48 hrs by sulforhodamine B assay; conditions: SNB-75, 48 h, values are per cent of control
[2] = Growth inhibition of human LOXIMVI cells at 10 uM after 48 hrs by sulforhodamine B assay; conditions: LOX IMVI, values are per cent of control
M14 = test: Growth inhibition of human M14 cells at 10 uM after 48 hrs by sulforhodamine B assay; conditions: M14, 48 h, values are per cent of control
MDA-MB-435 = test: Growth inhibition of human MDA-MB-435 cells at 10 uM after 48 hrs by sulforhodamine B assay; conditions: MDA-MB-435, 48 h, values are per cent of control
SK-MEL-2 = test: Growth inhibition of human SK-MEL-2 cells at 10 uM after 48 hrs by sulforhodamine B assay; conditions: SK-MEL-2, 48 h, values are per cent of control
SK-MEL-28 = test: Growth inhibition of human SK-MEL-28 cells at 10 uM after 48 hrs by sulforhodamine B assay; conditions: SK-MEL-28, 48 h, values are per cent of control
SK-MEL-5 = test: Growth inhibition of human SK-MEL-5 cells at 10 uM after 48 hrs by sulforhodamine B assay; conditions: SK-MEL-5, 48 h, values are per cent of control
[3] = Growth inhibition of human UACC62 cells at 10 uM after 48 hrs by sulforhodamine B assay; conditions: UACC-62, 48 h, values are per cent of control
[4] = Growth inhibition of human IGROV1 cells at 10 uM after 48 hrs by sulforhodamine B assay; conditions: IGROV-1, 48 h, values are per cent of control
[5] = Growth inhibition of human OVCAR4 cells at 10 uM after 48 hrs by sulforhodamine B assay; conditions: OVCAR-4, 48 h, values are per cent of control
[6] = Growth inhibition of human OVCAR5 cells at 10 uM after 48 hrs by sulforhodamine B assay; conditions: OVCAR-5, 48 h, values are per cent of control
[7] = Growth inhibition of human OVCAR8 cells at 10 uM after 48 hrs by sulforhodamine B assay; conditions: OVCAR-8, 48 h, values are per cent of control
786-0 = test: Growth inhibition of human 786-0 cells at 10 uM after 48 hrs by sulforhodamine B assay; conditions: 786-0, 48 h, values are per cent of control
A498 = test: Growth inhibition of human A498 cells at 10 uM after 48 hrs by sulforhodamine B assay; conditions: A498, 48 h, values are per cent of control
ACHN = test: Growth inhibition of human ACHN cells at 10 uM after 48 hrs by sulforhodamine B assay; conditions: values are per cent of control
[8] = Growth inhibition of human Caki1 cells at 10 uM after 48 hrs by sulforhodamine B assay; conditions: CAKI-1, 48 h, values are per cent of control
[9] = Growth inhibition of human RXF393 cells at 10 uM after 48 hrs by sulforhodamine B assay; conditions: RXF 393, 48 h, values are per cent of control
SN12C = test: Growth inhibition of human SN12C cells at 10 uM after 48 hrs by sulforhodamine B assay; conditions: values are per cent of control
[10] = Growth inhibition of human UO31 cells at 10 uM after 48 hrs by sulforhodamine B assay; conditions: UO-31, 48 h, values are per cent of control
[11] = Growth inhibition of human DU145 cells at 10 uM after 48 hrs by sulforhodamine B assay; conditions: DU-145, 48 h, values are per cent of control
MDA-MB-231 = test: Growth inhibition of human MDA-MB-231 cells at 10 uM after 48 hrs by sulforhodamine B assay; conditions: MDA-MB-231, 48 h, values are per cent of control
[12] = Growth inhibition of human Hs 578T cells at 10 uM after 48 hrs by sulforhodamine B assay; conditions: values are per cent of control
[13] = Growth inhibition of human BT549 cells at 10 uM after 48 hrs by sulforhodamine B assay; conditions: BT-549, 48 h, values are per cent of control
K562 = test: Growth inhibition of human K562 cells at 10 uM after 48 hrs by sulforhodamine B assay; conditions: K562, 48 h, values are per cent of control
SR = test: Growth inhibition of human SR cells at 10 uM after 48 hrs by sulforhodamine B assay; conditions: values are per cent of control
A549 = test: Growth inhibition of human A549/ATCC cells at 10 uM after 48 hrs by sulforhodamine B assay; conditions: A549, 48 h, values are per cent of control
[14] = Growth inhibition of human HOP62 cells at 10 uM after 48 hrs by sulforhodamine B assay; conditions: HOP-62, 48 h, values are per cent of control
NCI-H226 = test: Growth inhibition of human NCI-H226 cells at 10 uM after 48 hrs by sulforhodamine B assay; conditions: NCI-H226, 48 h, values are per cent of control
NCI-H23 = test: Growth inhibition of human NCI-H23 cells at 10 uM after 48 hrs by sulforhodamine B assay; conditions: NCI-H23, 48 h, values are per cent of control
NCI-H322M = test: Growth inhibition of human NCI-H322M cells at 10 uM after 48 hrs by sulforhodamine B assay; conditions: values are per cent of control
NCI-H460 = test: Growth inhibition of human NCI-H460 cells at 10 uM after 48 hrs by sulforhodamine B assay; conditions: NCI-H460, 48 h, values are per cent of control
[15] = Growth inhibition of human COLO205 cells at 10 uM after 48 hrs by sulforhodamine B assay; conditions: COLO 205, 48 h, values are per cent of control
[16] = Growth inhibition of human HCT116 cells at 10 uM after 48 hrs by sulforhodamine B assay; conditions: HCT-116, 48 h, values are per cent of control
[17] = Growth inhibition of human HCT15 cells at 10 uM after 48 hrs by sulforhodamine B assay; conditions: HCT-15, 48 h, values are per cent of control
HT-29 = test: Growth inhibition of human HT-29 cells at 10 uM after 48 hrs by sulforhodamine B assay; conditions: HT-29, 48 h, values are per cent of control
KM12 = test: Growth inhibition of human KM12 cells at 10 uM after 48 hrs by sulforhodamine B assay; conditions: KM12, 48 h, values are per cent of control
[18] = Growth inhibition of human SW620 cells at 10 uM after 48 hrs by sulforhodamine B assay; conditions: SW-620, 48 h, values are per cent of control
[19] = Growth inhibition of human SF295 cells at 10 uM after 48 hrs by sulforhodamine B assay; conditions: SF-295, 48 h, values are per cent of control
[20] = Growth inhibition of human SF539 cells at 10 uM after 48 hrs by sulforhodamine B assay; conditions: SF-539, 48 h, values are per cent of control
[21] = Growth inhibition of human SNB19 cells at 10 uM after 48 hrs by sulforhodamine B assay; conditions: SNB-19, 48 h, values are per cent of control

For `N#C/C(=C\c1ccc(Cl)c(Cl)c1)c1ccc2c(c1)OCO2`, the growth, % of control at 10 µM [1] was 20.3%, the growth, % of control at 10 µM [2] was 62.7% and the growth, % of control at 10 µM (M14) was 96.5%. For the same compound, the growth, % of control at 10 µM (MDA-MB-435) was 93.7%, the growth, % of control at 10 µM (SK-MEL-2) was 89.7% and the growth, % of control at 10 µM (SK-MEL-28) was 105%. For the same compound, the growth, % of control at 10 µM (SK-MEL-5) was 98.4%, the growth, % of control at 10 µM [3] was 108% and the growth, % of control at 10 µM [4] was 67.2%. It also gave a growth, % of control at 10 µM [5] of 26.1%, a growth, % of control at 10 µM [6] of 99.3% and a growth, % of control at 10 µM [7] of 70.9%. It also gave a growth, % of control at 10 µM (786-0) of 72.4%, a growth, % of control at 10 µM (A498) of 94.3% and a growth, % of control at 10 µM (ACHN) of 49.1%. It also gave a growth, % of control at 10 µM [8] of 87.4%, a growth, % of control at 10 µM [9] of 94.4% and a growth, % of control at 10 µM (SN12C) of 93.5%. For the same compound, the growth, % of control at 10 µM [10] was 73.7%, the growth, % of control at 10 µM [11] was 94.1% and the growth, % of control at 10 µM (MDA-MB-231) was 80.5%. For the same compound, the growth, % of control at 10 µM [12] was 81.3%, the growth, % of control at 10 µM [13] was 94.1% and the growth, % of control at 10 µM (K562) was 94.8%. The growth, % of control at 10 µM (SR) was 77.7%, the growth, % of control at 10 µM (A549) was 70% and the growth, % of control at 10 µM [14] was 88%. The growth, % of control at 10 µM (NCI-H226) was 98.9%, the growth, % of control at 10 µM (NCI-H23) was 88% and the growth, % of control at 10 µM (NCI-H322M) was 74.1%. For the same compound, the growth, % of control at 10 µM (NCI-H460) was 84.7%, the growth, % of control at 10 µM [15] was 93.2% and the growth, % of control at 10 µM [16] was 70.1%. It also gave a growth, % of control at 10 µM [17] of 88.7%, a growth, % of control at 10 µM (HT-29) of 102% and a growth, % of control at 10 µM (KM12) of 91.7%. The growth, % of control at 10 µM [18] was 89.8%, the growth, % of control at 10 µM [19] was 77% and the growth, % of control at 10 µM [20] was 86.9%. The growth, % of control at 10 µM [21] was 105%.
In the case of `COc1ccc(/C=C(\C#N)c2ccc3c(c2)OCO3)cc1`, the growth, % of control at 10 µM [1] is reported as 2.2%, the growth, % of control at 10 µM [2] is reported as 33.3% and the growth, % of control at 10 µM (M14) is reported as 10.5%. The growth, % of control at 10 µM (MDA-MB-435) was -29.1%, the growth, % of control at 10 µM (SK-MEL-2) was -17.7% and the growth, % of control at 10 µM (SK-MEL-28) was 40.7%. For the same compound, the growth, % of control at 10 µM (SK-MEL-5) was 16.4%, the growth, % of control at 10 µM [3] was 37.5% and the growth, % of control at 10 µM [4] was 46.3%. The growth, % of control at 10 µM [5] was 67.3%, the growth, % of control at 10 µM [6] was 49.6% and the growth, % of control at 10 µM [7] was 26.7%. The growth, % of control at 10 µM (786-0) was 50.3%, the growth, % of control at 10 µM (A498) was -6.2% and the growth, % of control at 10 µM (ACHN) was 45.7%. For the same compound, the growth, % of control at 10 µM [8] was 24.8%, the growth, % of control at 10 µM [9] was 23.3% and the growth, % of control at 10 µM (SN12C) was 37.2%. It also gave a growth, % of control at 10 µM [10] of 28%, a growth, % of control at 10 µM [11] of 28.3% and a growth, % of control at 10 µM (MDA-MB-231) of 49.6%. The growth, % of control at 10 µM [12] was 27.2%, the growth, % of control at 10 µM [13] was 30.3% and the growth, % of control at 10 µM (K562) was 15.8%. The growth, % of control at 10 µM (SR) was 11.8%, the growth, % of control at 10 µM (A549) was 32.3% and the growth, % of control at 10 µM [14] was 43.8%. The growth, % of control at 10 µM (NCI-H226) was 71.8%, the growth, % of control at 10 µM (NCI-H23) was 43.2% and the growth, % of control at 10 µM (NCI-H322M) was 35.7%. The growth, % of control at 10 µM (NCI-H460) was 15.5%, the growth, % of control at 10 µM [15] was 11.9% and the growth, % of control at 10 µM [16] was 17.4%. It also gave a growth, % of control at 10 µM [17] of 17.8%, a growth, % of control at 10 µM (HT-29) of 6% and a growth, % of control at 10 µM (KM12) of 30%. The growth, % of control at 10 µM [18] was 19.6%, the growth, % of control at 10 µM [19] was 11.2% and the growth, % of control at 10 µM [20] was -13.8%. For the same compound, the growth, % of control at 10 µM [21] was 46%.
